The results in this text go back to ChEMBL document CHEMBL1201862, “PubChem BioAssay data set” (2004).

Test systems include SN12C; SR; 786-0; A498; A549; ACHN; CAKI-1; CCRF-CEM; COLO 205; HCT-116; HCT-15; HOP-92; HT-29; K562; LOX IMVI; M14; MCF7; MDA-MB-435; MOLT-4; Malme-3M; NCI-H226; NCI-H23; NCI-H460; NCI-H522; NCI/ADR-RES; OVCAR-5; OVCAR-8; RPMI-8226; SF-268; SF-295; SF-539; SK-MEL-28; SK-MEL-2; SW-620; TK-10; U-251; UACC-257; UACC-62; UO-31; DU-145; EKVX; HL-60; HOP-62; Hs-578T; IGROV-1; KM12; MDA-MB-231; MDA-N; OVCAR-3; OVCAR-4; PC-3; SK-MEL-5; SK-OV-3; SNB-19; SNB-75.

Common to all, as to test: NCI-60 cell line screen, 48 h

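Growth conditions: 96-well plates. Treatment: test compound, 48 hours, 5 concentrations. Analysis: linear interpolation between bracketing concentrations; unreached endpoints set to highest concentration. The concentration for 50% growth inhibition is given as GI50.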 The source made the active and inactive calls. No stated cut-off is given here; in the data, active = GI50 up to about 1.1 µM and inactive = higher. Some results are limits rather than exact numbers.

For the compound `COc1cc(C2c3cc4c(cc3[C@@H](NC3CCN(Cc5ccccc5)CC3)C3COC(=O)[C@H]23)OCO4)cc(OC)c1O` (stereo partly drawn), the GI50 was 0.0399 µM (active) in the test on SN12C and < 0.01 µM (active) in the test on SR.

Regarding `COc1cc([C@@H]2c3cc4c(cc3[C@@H](Nc3ccc(C(=O)N[C@H]5CCc6cc(OC)c(OC)c(OC)c6-c6ccc(SC)c(=O)cc65)cc3)[C@H]3COC(=O)[C@H]23)OCO4)cc(OC)c1O`, the GI50 in the test on 786-0 is < 0.01 µM (active); in the test with A498 it was 0.437 µM (active); in the test with A549, < 0.01 µM (active); with ACHN, 0.0598 µM (active); with CAKI-1 it was 0.132 µM (active); in the test with CCRF-CEM, < 0.01 µM (active). The GI50 in the test with COLO 205 was < 0.01 µM (active); in the test with HCT-116, < 0.01 µM (active); in the test on HCT-15, 0.428 µM; in the test on HOP-92, 0.042 µM (active); with HT-29, < 0.01 µM (active); with K562, < 0.01 µM (active). Further, the GI50 in the test with LOX IMVI was < 0.01 µM (active); in the test on M14, < 0.01 µM (active); in the test on MCF7 it was < 0.01 µM (active); with MDA-MB-435, < 0.01 µM (active); in the test with MOLT-4, < 0.01 µM (active); in the test on Malme-3M, 0.322 µM (active). In addition, the GI50 is < 0.01 µM (active) in the test with NCI-H226; < 0.01 µM (active) in the test with NCI-H23; < 0.01 µM (active) in the test with NCI-H460; < 0.01 µM (active) with NCI-H522; 0.493 µM (active) with NCI/ADR-RES; 43.1 µM (inactive) with OVCAR-5. Besides, the GI50 in the test with OVCAR-8 was < 0.01 µM (active); in the test with RPMI-8226, < 0.01 µM (active); with SF-268 it was 11.7 µM (inactive); with SF-295, < 0.01 µM (active); with SF-539, < 0.01 µM (active); in the test on SK-MEL-28, 13 µM (inactive). The GI50 was < 0.01 µM (active) with SK-MEL-2; < 0.01 µM (active) with SN12C; < 0.01 µM (active) in the test on SR; < 0.01 µM (active) in the test with SW-620; 15.2 µM (inactive) in the test on TK-10; < 0.01 µM (active) in the test on U-251. Besides, the GI50 in the test on UACC-257 is < 0.01 µM (active); in the test on UACC-62, < 0.01 µM (active); in the test on UO-31, 0.698 µM (active).

On to `O=C1/C(=C/c2ccc(O)cc2)NC(=S)N1CN1CCCCC1`, for which the GI50 in the test with 786-0 was 62.2 µM (inactive); with A498, 96.6 µM (inactive); in the test on A549, > 100 µM (inactive); with ACHN, 45.7 µM (inactive); in the test with CCRF-CEM, 23.8 µM (inactive); with COLO 205, 21 µM (inactive). Moreover, the GI50 in the test with DU-145 was 57.1 µM (inactive); with EKVX, > 100 µM (inactive); with HCT-116 it was 45.8 µM (inactive); in the test with HCT-15 it was 31.8 µM; in the test on HL-60, 71.6 µM (inactive); with HOP-62, > 100 µM (inactive). The GI50 with HOP-92 is 54.6 µM (inactive); in the test on HT-29, 43 µM (inactive); in the test on Hs-578T, 85.5 µM (inactive); in the test on IGROV-1, 98.9 µM (inactive); with K562, 72.6 µM (inactive); in the test with KM12 it was > 100 µM (inactive). Besides, the GI50 in the test on LOX IMVI is 40.1 µM (inactive); in the test with M14, 59.2 µM (inactive); in the test on MCF7 it was 21.3 µM (inactive); in the test on MDA-MB-231, > 100 µM (inactive); with MDA-MB-435, 70.3 µM (inactive); with MDA-N, > 100 µM (inactive). Also, the GI50 is 62.7 µM (inactive) with MOLT-4; > 100 µM (inactive) in the test with Malme-3M; 78.3 µM (inactive) in the test with NCI-H226; > 100 µM (inactive) in the test on NCI-H23; 55.3 µM (inactive) with NCI-H522; > 100 µM (inactive) in the test with NCI/ADR-RES. Further, the GI50 in the test on OVCAR-3 was > 100 µM (inactive); with OVCAR-4 it was 53.3 µM (inactive); in the test on OVCAR-5 it was > 100 µM (inactive); in the test on OVCAR-8, 53.5 µM (inactive); in the test on PC-3, 53.2 µM (inactive); with RPMI-8226, 28.6 µM (inactive). The GI50 with SF-268 was 89.1 µM (inactive); in the test on SF-295, 89.7 µM (inactive); in the test on SK-MEL-28, > 100 µM (inactive); in the test on SK-MEL-2 it was > 100 µM (inactive); with SK-MEL-5 it was 27.4 µM (inactive); in the test with SK-OV-3 it was > 100 µM (inactive). Moreover, the GI50 in the test with SN12C is 80 µM (inactive); in the test on SNB-19 it was 89.5 µM (inactive); in the test on SNB-75, > 100 µM (inactive); in the test with SR, 49.2 µM (inactive); in the test with SW-620, 36.6 µM (inactive); in the test with TK-10, 94 µM (inactive). Further, the values for the GI50 with U-251, with UACC-62 and in the test with UO-31 were 49.8 µM (inactive), 42.9 µM (inactive) and 71.4 µM (inactive), respectively.

On to `CC(C)Cc1ccc(C(C)C(=O)O)cc1` (stereo not drawn) [IBUPROFEN], for which, in the test on NCI-H23, the GI50 is > 100 µM (inactive).
